Key:
SW-620 = assay: NCI single dose screen, SW-620; format: cell-based; details: Homo sapiens; SW-620, colon cancer; single dose 10^−5 M; read-out: growth inhibition percentage
Experimental: (§1) Screening of the anticancer activity of the newly synthesised compounds (6a, 6c, 6d, 6e, 6j, 6l, 6m, 6n, 6o, and 6p) was performed by the US National Cancer Institute (NCI) using 60 different human tumour cell lines in accordance with standard procedures formerly reported.
(§2) In vitro anticancer screening was carried out for the selected compounds at a single dose (10^−5 M) against 60 different human tumour cell lines of nine different cancer cell types: leukaemia, lung, colon, CNS, melanoma, ovarian, renal, prostate, and breast cancers.

DU-145 = assay: NCI single dose screen, DU-145; format: cell-based; details: Homo sapiens; DU-145, prostate cancer; single dose 10^−5 M; read-out: growth inhibition percentage
Experimental: as §1, §2

U251 = assay: NCI single dose screen, U251; format: cell-based; details: Homo sapiens, U-251; U251, CNS cancer; single dose 10^−5 M; read-out: growth inhibition percentage
Experimental: as §1, §2

NCI-H522 = assay: NCI single dose screen, NCI-H522; format: cell-based; details: Homo sapiens; NCI-H522, non-small cell lung cancer; single dose 10^−5 M; read-out: growth inhibition percentage
Experimental: as §1, §2

OVCAR-3 = assay: NCI single dose screen, OVCAR-3; format: cell-based; details: Homo sapiens; OVCAR-3, ovarian cancer; single dose 10^−5 M; read-out: growth inhibition percentage
Experimental: as §1, §2

[1] = system: LPS-induced IL-6 production in RAW 264.7 cells; assay: IL-6 production in LPS-activated RAW 264.7 cells (ELISA); format: cell-based; details: LPS-activated RAW 264.7 cells treated with 25 µM of the compound
SF-539 = assay: NCI single dose screen, SF-539; format: cell-based; details: Homo sapiens, read-out: growth inhibition percentage
Experimental: as §1, §2

MDA-MB-468 = assay: NCI single dose screen, MDA-MB-468; format: cell-based; details: Homo sapiens; MDA-MB-468, breast cancer; single dose 10^−5 M; read-out: growth inhibition percentage
Experimental: as §1, §2

SR = assay: NCI single dose screen, SR; format: cell-based; details: Homo sapiens, leukaemia, single dose 10^−5 M, read-out: growth inhibition percentage
Experimental: as §1, §2

NCI/ADR-RES = assay: NCI single dose screen, NCI/ADR-RES; format: cell-based; details: Homo sapiens, ovarian cancer, single dose 10^−5 M, read-out: growth inhibition percentage
Experimental: as §1, §2

SNB-75 = assay: NCI single dose screen, SNB-75; format: cell-based; details: Homo sapiens; SNB-75, CNS cancer; single dose 10^−5 M; read-out: growth inhibition percentage
Experimental: as §1, §2

UACC-257 = assay: NCI single dose screen, UACC-257; format: cell-based; details: Homo sapiens; UACC-257, melanoma; single dose 10^−5 M; read-out: growth inhibition percentage
Experimental: as §1, §2

[2] = system: LPS-induced TNF-α production in RAW 264.7 cells; assay: TNF-α production in LPS-activated RAW 264.7 cells (ELISA); format: cell-based; details: LPS-activated RAW 264.7 cells treated with 25 µM of the compound
SK-OV-3 = assay: NCI single dose screen, SK-OV-3; format: cell-based; details: Homo sapiens; SK-OV-3, ovarian cancer; single dose 10^−5 M; read-out: growth inhibition percentage
Experimental: as §1, §2

wild-type EGFR = molecular target: T1, wild-type EGFR (Homo sapiens, UniProt P00533); assay: In vitro EGFR inhibition assay, wild type; format: biochemical; details: for IC50: read-out: EGFR^WT IC50
T1 construct: purchased AssayQuant Technologies, Inc. (Marlboro, MA, USA)

SN12C = assay: NCI single dose screen, SN12C; format: cell-based; details: Homo sapiens, renal cancer, single dose 10^−5 M, read-out: growth inhibition percentage
Experimental: as §1, §2

UO-31 = assay: NCI single dose screen, UO-31; format: cell-based; details: Homo sapiens; UO-31, renal cancer; single dose 10^−5 M; read-out: growth inhibition percentage
Experimental: as §1, §2

M14 = assay: NCI single dose screen, M14; format: cell-based; details: Homo sapiens; M14, melanoma; single dose 10^−5 M; read-out: growth inhibition percentage
Experimental: as §1, §2

LOX IMVI = assay: NCI single dose screen, LOX IMVI; format: cell-based; details: Homo sapiens, melanoma, single dose 10^−5 M, read-out: growth inhibition percentage
Experimental: as §1, §2

HOP-92 = assay: NCI single dose screen, HOP-92; format: cell-based; details: Homo sapiens; HOP-92, non-small cell lung cancer; single dose 10^−5 M; read-out: growth inhibition percentage
Experimental: as §1, §2

MDA-MB-231/ATCC = assay: NCI single dose screen, MDA-MB-231/ATCC; format: cell-based; details: Homo sapiens, breast cancer, single dose 10^−5 M, read-out: growth inhibition percentage
Experimental: as §1, §2

K-562 = assay: NCI single dose screen, K-562; format: cell-based; details: Homo sapiens, K562; K-562, leukaemia; single dose 10^−5 M; read-out: growth inhibition percentage
Experimental: as §1, §2

KM12 = assay: NCI single dose screen, KM12; format: cell-based; details: Homo sapiens; KM12, colon cancer; single dose 10^−5 M; read-out: growth inhibition percentage
Experimental: as §1, §2

HS 578T = assay: NCI single dose screen, HS 578T; format: cell-based; details: Homo sapiens, breast cancer, single dose 10^−5 M, read-out: growth inhibition percentage
Experimental: as §1, §2

CAKI-1 = assay: NCI single dose screen, CAKI-1; format: cell-based; details: Homo sapiens; CAKI-1, renal cancer; single dose 10^−5 M; read-out: growth inhibition percentage
Experimental: as §1, §2

BT-549 = assay: NCI single dose screen, BT-549; format: cell-based; details: Homo sapiens; BT-549, breast cancer; single dose 10^−5 M; read-out: growth inhibition percentage
Experimental: as §1, §2

OVCAR-8 = assay: NCI single dose screen, OVCAR-8; format: cell-based; details: Homo sapiens; OVCAR-8, ovarian cancer; single dose 10^−5 M; read-out: growth inhibition percentage
Experimental: as §1, §2

T1 sequence (P00533 25-1210): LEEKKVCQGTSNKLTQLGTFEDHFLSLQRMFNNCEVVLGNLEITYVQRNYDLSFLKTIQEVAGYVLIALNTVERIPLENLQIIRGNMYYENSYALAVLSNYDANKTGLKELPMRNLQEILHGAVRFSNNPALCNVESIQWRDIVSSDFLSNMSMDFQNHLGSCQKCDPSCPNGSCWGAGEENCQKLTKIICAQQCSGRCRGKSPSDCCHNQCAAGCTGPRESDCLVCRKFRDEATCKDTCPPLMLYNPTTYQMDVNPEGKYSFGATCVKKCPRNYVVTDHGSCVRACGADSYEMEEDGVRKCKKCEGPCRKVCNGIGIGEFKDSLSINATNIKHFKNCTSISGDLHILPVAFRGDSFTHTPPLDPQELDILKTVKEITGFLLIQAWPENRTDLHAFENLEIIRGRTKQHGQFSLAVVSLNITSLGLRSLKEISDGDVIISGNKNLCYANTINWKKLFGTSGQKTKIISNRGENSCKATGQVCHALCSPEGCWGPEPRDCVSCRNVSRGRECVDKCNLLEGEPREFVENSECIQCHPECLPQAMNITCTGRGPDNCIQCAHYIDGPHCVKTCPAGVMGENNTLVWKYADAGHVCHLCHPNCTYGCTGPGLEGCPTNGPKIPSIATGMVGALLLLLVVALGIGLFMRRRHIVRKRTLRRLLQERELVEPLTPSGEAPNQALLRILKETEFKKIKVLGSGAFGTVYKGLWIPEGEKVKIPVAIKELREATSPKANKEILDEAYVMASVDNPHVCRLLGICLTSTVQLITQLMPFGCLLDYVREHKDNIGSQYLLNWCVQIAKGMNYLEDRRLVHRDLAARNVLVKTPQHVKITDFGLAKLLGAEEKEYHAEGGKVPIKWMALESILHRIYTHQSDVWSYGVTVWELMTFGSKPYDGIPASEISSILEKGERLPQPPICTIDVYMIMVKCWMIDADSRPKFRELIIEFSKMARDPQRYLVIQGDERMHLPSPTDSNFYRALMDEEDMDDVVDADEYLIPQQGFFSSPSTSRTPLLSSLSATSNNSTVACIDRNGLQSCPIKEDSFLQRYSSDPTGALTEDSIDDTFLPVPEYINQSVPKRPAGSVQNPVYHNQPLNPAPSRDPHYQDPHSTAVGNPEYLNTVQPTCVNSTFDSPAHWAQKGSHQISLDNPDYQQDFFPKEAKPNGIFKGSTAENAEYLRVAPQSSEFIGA

Structure (SMILES)	inhibition at 10 µM (SW-620)	inhibition at 10 µM (DU-145)	inhibition at 10 µM (U251)	inhibition at 10 µM (NCI-H522)	inhibition at 10 µM (OVCAR-3)	IL-6 concentration [1]	inhibition at 10 µM (SF-539)	inhibition at 10 µM (MDA-MB-468)	inhibition at 10 µM (SR)	inhibition at 10 µM (NCI/ADR-RES)	inhibition at 10 µM (SNB-75)	inhibition at 10 µM (UACC-257)	TNF-α concentration [2]	inhibition at 10 µM (SK-OV-3)	melting point	IC50 (wild-type EGFR)	inhibition at 10 µM (SN12C)	inhibition at 10 µM (UO-31)	inhibition at 10 µM (M14)	inhibition at 10 µM (LOX IMVI)	also measured
CN1CN(NC(=O)Nc2ccccc2)C(=O)c2ccccc21 [Compound 6a, 1-(1-Methyl-4-oxo-1,4-dihydroquinazolin-3(2H)-yl)-3-phenylurea]	< 10%	< 10%	< 10%	< 10%	< 10%	173.7 ± 4.77 pg/mL	< 10%	< 10%	< 10%	< 10%	< 10%	< 10%	1157.00 ± 78.71 pg/mL	< 10%	240 to 241 °C	> 100 µM	< 10%	< 10%	< 10%	< 10%	EGFR^WT IC50 (wild-type EGFR): no significant activity; inhibition at 10 µM (HOP-92): < 10%; inhibition at 10 µM (MDA-MB-231/ATCC): < 10%; inhibition at 10 µM (K-562): < 10%; inhibition at 10 µM (KM12): < 10%; inhibition at 10 µM (HS 578T): < 10%; inhibition at 10 µM (CAKI-1): < 10%; inhibition at 10 µM (BT-549): < 10%; inhibition at 10 µM (OVCAR-8): < 10%
CN1c2ccccc2C(=O)N(NC(=O)Nc2ccccc2)C1c1ccccc1 (centres unmarked) [Compound 6c, 1-(1-Methyl-4-oxo-2-phenyl-1,4-dihydroquinazolin-3(2H)-yl)-3-phenylurea]	< 10%	< 10%	< 10%	< 10%	11.7%	468.4 ± 87.46 pg/mL	< 10%	< 10%	< 10%	< 10%	< 10%	< 10%	955.00 ± 4.66 pg/mL	< 10%	180 to 181 °C	> 100 µM	< 10%	19.5%	< 10%	< 10%	inhibition at 10 µM (HOP-92): < 10%; inhibition at 10 µM (MDA-MB-231/ATCC): < 10%; inhibition at 10 µM (K-562): < 10%; inhibition at 10 µM (KM12): < 10%; inhibition at 10 µM (HS 578T): 56.8%; inhibition at 10 µM (CAKI-1): < 10%; inhibition at 10 µM (BT-549): < 10%; inhibition at 10 µM (OVCAR-8): < 10%
CN1c2ccccc2C(=O)N(NC(=O)Nc2ccccc2)C1c1ccc(F)cc1 (centres unmarked) [Compound 6d, 1-(2-(4-Fluorophenyl)-1-methyl-4-oxo-1,4-dihydroquinazolin-3(2H)-yl)-3-phenylurea]	< 10%	< 10%	< 10%	< 10%	12.5%	358.7 ± 12.85 pg/mL	< 10%	< 10%	< 10%	< 10%	13.8%	< 10%	1222.00 ± 12.70 pg/mL	< 10%	230 to 232 °C	> 100 µM	< 10%	36.2%	< 10%	< 10%	inhibition at 10 µM (HOP-92): < 10%; inhibition at 10 µM (MDA-MB-231/ATCC): < 10%; inhibition at 10 µM (K-562): < 10%; inhibition at 10 µM (KM12): < 10%; inhibition at 10 µM (HS 578T): < 10%; inhibition at 10 µM (CAKI-1): 13%; inhibition at 10 µM (BT-549): < 10%; inhibition at 10 µM (OVCAR-8): < 10%
CN1c2ccccc2C(=O)N(NC(=O)Nc2ccccc2)C1c1ccc([N+](=O)[O-])cc1 (centres unmarked) [Compound 6e, 1-(1-Methyl-2-(4-nitrophenyl)-4-oxo-1,4-dihydroquinazolin-3(2H)-yl)-3-phenylurea]	< 10%	< 10%	< 10%	< 10%	< 10%	198.8 ± 6.08 pg/mL	< 10%	< 10%	< 10%	< 10%	< 10%	< 10%	1929.00 ± 53.88 pg/mL	< 10%	241 to 243 °C	48.7 ± 3.47 µM	< 10%	14.4%	67.2%	< 10%	inhibition at 10 µM (HOP-92): < 10%; inhibition at 10 µM (MDA-MB-231/ATCC): < 10%; inhibition at 10 µM (K-562): < 10%; inhibition at 10 µM (KM12): < 10%; inhibition at 10 µM (HS 578T): < 10%; inhibition at 10 µM (CAKI-1): < 10%; inhibition at 10 µM (BT-549): 67.1%; inhibition at 10 µM (OVCAR-8): < 10%
